According to patent publication US8470763B2, “Alpha-amino-N-substituted amides, pharmaceutical composition containing them and uses thereof” (Shanghai Institute of Materia Medica Chinese Academy of …, priority 2007, dated 2013):
Read-outs that look alike come from different tables or passages of the source.

How the values were obtained:
[1] = test system: MDA-MB-435S human breast cancer cells; assay: MTT assay, proliferation of MDA-MB-435S cells; type: cell-based; conditions: 72 h
Method: The experiments for evaluating the antineoplasmic activities of the compounds according to the present invention were carried out, and the compounds' antineoplasmic activities in vitro was evaluated by determining the inhibitory activities thereof against the proliferation of MDA-MB-435S human breast cancer cells.
The antineoplasmic activities were determined by using the MTT assay, which is based on the metabolic reduction of 3-(4,5-dimethylthylthiazol-2-yl)-2,5-diphenyl tetrazolium bromide (MTT). The dehydrogenases, which are related to NADP (niacinamide adenine dinucleotide phosphate, coenzyme) and present in mitochondrions of living cells, can reduce the yellow MTT to an insoluble, dark purple formazan. […] After the formazan is dissolved in DMSO, the optical density is determined on an ELISA Reader at the wavelength of 550/690 nm.
(§1) The adhered MDA-MB-4355 cells in logarithmic growth phase, were digested by 0.05% trypsogen, counted and formulated into a cell suspension with a medium. After counted, the suspension was inoculated on a 96-well plate with 3000 cells and 100 μl medium per well. The inoculated 96-well plate was placed overnight in an incubator at 37 with 5% CO2 to allow the cells to adhere to the wall. On the next day, the administration of the drugs started. Before the administration, into some of the control wells, each was added 20 μl of the MTT solution (5 mg/ml) without removing the medium therein. After incubated for 3 h, the absorption at A550/690 was recorded as the initial cell concentration. For the drug wells, each was added into 100 μl of medium containing 2 μl of compound solution. For the control wells which use DMSO as background control, each was also added into 100 μl of medium containing 2 μl of DMSO. In addition, each experiment was carried out with adriamycin as the positive control. Subsequently, the 96-well plate was incubated in an incubator at 37 with 5% CO2 for 72 h. each compound was tested in triplicate wells (6 μl of compound solution was put into a sterilized eppendorf centrifuge tube, then 300 μl of medium was added and mixed well, and the mixture was distributed into 3 wells respectively), and at six concentrations which form a gradient. 3 days (72 h) later, 40 μl of MTT solution (5 mg/ml) was put into each well directly (without sucking off the medium therein), and the plate was incubated in the incubator for 3 h and then taken out. The liquid in each well was sucked off, and then 100 μl of DMSO was put into each well to dissolve the crystal completely with slight shake. The absorbance of the solution in each well was determined at 550/690 nm on an ELISA Reader as the cell density after treated with the compound. The growth inhibition of compound against breast cancer cells MDA-MB-435S was represented by the cell survival rate, and IC50 was determined from the profile of cell survival rate vs compound concentration. The calculating formula was as follows: cell survival rate=[(cells+compound)A550/690/(cells+compound vector DMSO)A550/690]×100%

[2] = test system: colon cancer cells HCT116; assay: MTT assay, HCT116 cells; type: cell-based; conditions: Homo sapiens, HCT-116, 72 h
Method: as §1
(§2) MDA-MB-435S: human breast cancer cells; HCT116: colon cancer cells; A549: lung adenocarcinoma cells; Hela: uterine cervix cancer cells.
(§3) The tests were performed in the same manner as that of experimental example 1, except that for Hela cells, after counted, each well was seeded with 1000 cells and 100 μl of medium on a 96-well plate.

[3] = test system: lung adenocarcinoma cells A549; assay: MTT assay, A549 cells; type: cell-based; conditions: Homo sapiens, 72 h
Method: as §1, §2, §3

[4] = test system: SGC-7901 (Gastric Cancer); assay: SRB assay, SGC-7901; type: cell-based; conditions: Homo sapiens, 72 h, read-out: IC50 (μM) (mean ± SD)
Method: (§4) Experimental method: The antineoplasmic activities in vitro of the compounds were determined by SRB assay. The detailed procedure was as follows. The cells in the logarithmic growth phase were inoculated on a 96-well microculture plate with a suitable density (100 μl/well), and allowed to attach overnight, followed by addition of the compound at different concentrations to be treated for 72 h. For each concentration, the test was carried out in triplicate wells, and included control wells containing the aqueous medium of normal saline and a blank well containing all medium without cells for zeroing. After cultured overnight, the cells were treated with the compound at different concentrations for 72 h. After the treatment, the culture medium was removed, and the cells were fixed with 10% (wt/vol) trichloroacetic acid (100 μL/well) at 4° C. for 1 h. The cells were then washed with distilled water for 5 times, and died at room temperature, followed by addition of a SRB solution (4 mg/mL, dissolved in 1% glacial acetic acid) at 100 μL/well. The cells were incubated and stained at room temperature for 15 min, then washed with 1% glacial acetic acid for 5 times to remove the uncombined SRB, and died at room temperature. 100 μL of 10 mM Tris solution was added in each well, and the Optical Density (OD) were measured at a wavelength of 560 nm on a VERSMax ELISA Reader (Molecule Devices). The growth inhibition of the compound against tumor cells was calculated according to the following equation: Growth inhibition (%)=(ODcontrol−ODtreated)/ODcontrol×100%.
(§5) IC50 (the concentration of the sample compound that is required for 50% inhibition of cell growth) was calculated by using the Logit method based on the measurement, and each test was repeated for 3 times to calculate the mean value and standard deviation.

HCT-116 (Colon Cancer) = assay: SRB assay, HCT-116; type: cell-based; conditions: Homo sapiens, 72 h, read-out: IC50 (μM) (mean ± SD)
Method: as §4, §5

HO-8910 (Ovarian Cancer) = assay: SRB assay, HO-8910; type: cell-based; conditions: 72 h, read-out: IC50 (μM) (mean ± SD)
Method: as §4, §5

BEL-7402 (Liver Cancer) = assay: SRB assay, BEL-7402; type: cell-based; conditions: Homo sapiens, 72 h, read-out: IC50 (μM) (mean ± SD)
Method: as §4, §5

7404 (Liver Cancer) = assay: SRB assay, 7404; type: cell-based; conditions: 72 h, read-out: IC50 (μM) (mean ± SD)
Method: as §4, §5

[5] = test system: MDA-MB-435 (Breast Cancer); assay: SRB assay, MDA-MB-435; type: cell-based; conditions: Homo sapiens, 72 h, read-out: IC50 (μM) (mean ± SD)
Method: as §4, §5

[6] = test system: human breast cancer cells MDA-MB-435 transplanted on nude mice; conditions: mouse, in vivo
Method: (§6) Dosage: among 3 groups, the dosages of L538 were set at 5, 10 and 20 mg/kg as the high, middle and low dosages, respectively, administrating intravenously 3 times a week; while MMC was administrated intravenously at the first day whit a dosage of 5 mg/kg.
(§7) Animals: BALB/CA nude mice, male, 40-45 days old, body weight: 18±1 g, provided by Shanghai Institute of Materia Medica, Chinese Academy of Sciences. […] Animal number in each group: 7 in negative control group, and 4 in administration group.
(§8) The amount of inoculated cells was 5×10^6. After the transplanted tumor was formed by inoculation, it was used after passed for 3 generations in nude mice.
(§9) Experimental procedure: tumor tissue in productive phase was cut into nubs of about 1.5 mm^3. Under sterile conditions, the nubs were inoculated subcutaneously in right axillary fossa of the nude mice. The diameters of the transplanted tumors on nude mice were measured by a vernier caliper. When the tumors grew up to 100-200 mm^3, the animals were divided randomly into groups. Mice in experimental groups were administered intravenously every other day. […] The total administration duration was 3 weeks. For the positive control, MMC, Mice were administered intravenously once at the first day of a week, and the total administration duration was 3 weeks. Mice in control groups were administrated physiologic saline in equivalent amount. The diameter of the tumor and weight of mice were measured twice a week. The equation for calculating the TV (tumor volume) was as follows: TV=½×a×b^2, • wherein, a is length and b is width. RTV (relative tumor volume) was calculated based on the measured results, and the equation thereof was as follows: RTV=Vt/V0 • wherein, V0 is the tumor volume measured when the mice were grouped (i.e. d0), and Vt is the tumor volume at each measurement. The evaluation index for the antitumor activity was the relative tumor proliferation rateT/C (%).
(§10) The calculation equation was as follows: T/C(%)=(TRTV/CRTV)×100, • wherein, TRTV is the RTV of therapeutic Group and CRTV is RTV of negative control group.

[7] = test system: human breast cancer cells MDA-MB-435 transplanted on nude mice; assay: Antineoplasmic activity in vivo, MDA-MB-435 transplanted tumor on nude mice; conditions: for Body Weight(g) Ultimate / TV (mm^3) d21 / RTV: q3w × 3w; for Body Weight(g) Ultimate: i.v. 4 times then peritoneally 5 times; for RTV: d21
Method: as §6, §7, §8, §9, §10

Work on CO[C@@H](C(=O)N[C@@H](C)C(=O)NCCOC(=O)C12CC3CC(CC(C3)C1)C2)[C@H](O)[C@@H](O)[C@H](O)/C=C/C(C)(C)C [Compound L538] yielded an IC50 ([1]; read-out: Cell Survival Rate IC50) of 0.49 µM, an IC50 ([1]; Homo sapiens, note: MDA-MB-435S, read-out: IC50 (MDA-MB-435)) of 0.494 ± 0.139 µM and an IC50 ([1]; Homo sapiens, read-out: Cell Survival Rate IC50) of 0.43 µM. The IC50 [2] was 0.098 ± 0.009 µM, the IC50 [3] was 0.133 ± 0.025 µM and the IC50 [4] was 3.92 ± 1.78 µM. It also gave an IC50 (HCT-116 (Colon Cancer)) of 0.24 ± 0.1 µM, an IC50 (HO-8910 (Ovarian Cancer)) of over 20 µM and an IC50 (BEL-7402 (Liver Cancer)) of 0.37 ± 0.27 µM. The IC50 (7404 (Liver Cancer)) was over 20 µM, the IC50 [5] was 0.09 ± 0.01 µM and the dead nude mice [6] was “none of the experimental groups had dead nude mice”. The “growth inhibition of transplanted tumor, conclusion” value ([7]; 5, 10 and 20 mg/kg, 3 weeks) was “can significantly depress the growth”, the “T/C (%)” value ([7]; L538 5 mg/kg, q3w × 3w (low dosage group), P >0.05) was 64.7% and the “Body Weight(g) Ultimate” value ([7]; L538 5 mg/kg, initial 19.3 g) was 23.5 g. For the same molecule, the “TV (mm^3) d21” value ([7]; L538 5 mg/kg, d0 131 ± 59) was 1144 ± 353 mm^3, the RTV ([7]; L538 5 mg/kg) was 9.6 ± 3.5 and the “T/C (%)” value ([7]; L538 10 mg/kg, q3w × 3w (middle dosage group), P <0.05) was 47.1%. The “Body Weight(g) Ultimate” value ([7]; L538 10 mg/kg, initial 17.7 g) was 21.7 g, the “TV (mm^3) d21” value ([7]; L538 10 mg/kg, d0 133 ± 49) was 951 ± 619 mm^3 and the RTV ([7]; L538 10 mg/kg) was 6.9 ± 3.6. For the same molecule, the “T/C (%)” value ([7]; L538 20 mg/kg, q3w × 3w (high dosage group), P <0.05) was 36.0%, the “Body Weight(g) Ultimate” value ([7]; L538 20 mg/kg, initial 18.5 g) was 19.7 g and the “TV (mm^3) d21” value ([7]; L538 20 mg/kg, d0 135 ± 37) was 735 ± 501 mm^3. For the same molecule, the RTV ([7]; L538 20 mg/kg) was 5.3 ± 3.1, the “tail stimulus on intravenous administration” value ([7]; after administered intravenously 4 times, every other day) was “too strong tail stimulus to be administered intravenously” and the “increase in body weight” value ([7]; high dosage group) was “did not have an significant increase in body weight”. The “growth inhibition of transplanted tumor” value ([7]; low dosage group) was “did not be depressed obviously”.
